Experimental data published in patent publication US12158399B2, “CaMKK2 inhibitor compositions and methods of using the same” (Duke University, priority 2016, dated 2024).

How the values were obtained:
bone marrow derived MDSC = test: In vitro MDSC generation from bone marrow with H2O2 or antioxidants; assay type: cell-based, mouse; conditions: added Day 0 and Day 3; 0.001 mM H2O2, 20 μM MitoTEMPO, 20 μM BHA
Text: To further study how ROS regulates MDSC differentiation, low dose of H2O2 and two commonly used antioxidants, MitoTEMPO and Butylated hydroxyanisole (BHA), were separately added to the culture media during MDSC in vitro generation. At basal condition, KO marrow generated less M-MDSC cells while differentiated more into Ly6C−CD11c+I-A+ mature dendritic cells compared to WT ones. […] The higher level of ROS in CaMKK2 KO MDSCs limited M-MDSC accumulation by facilitating the myeloid cell differentiation.
Bone marrow cells were prepared as described before. Cells after RBC lysis were seeded to 6-well plates (Coring, NY, USA) at 1×10^6 per well in 5 ml DMEM (Gibco, MA, USA) supplied with 10% FBS, 2 mM L-glutamine, 1.5 g/L sodium bicarbonate, 10 mM HEPES, 1.0 mM sodium pyruvate (all from Gibco, MA, USA), 10% fetal bovine serum (Hyclone, MA, USA), 40 nM recombinant mouse GM-CSF and 40 nM recombinant mouse IL-6 (Biolegend, CA, USA), and with or without 50% E.G7 supernatant. The supernatant was half-changed on Day 3. The floating cells were collected on Day 5 and enriched by anti-mouse Gr-1 Microbeads (Miltenyi, Bergisch Gladbach, Germany). The cells with the purity >90% were used. In some experiments as indicated, the cells were stained with APC anti-mouse Gr-1, PE anti-mouse/human CD11b (Biolegend, CA, USA). Double positive cells were sorted with BD FACS Aria II cell sorter (BD, NJ, USA).
For MDSC and BMDC, only floating cells were collected. 1×10^6 cells were spun down in BD Falcon round-bottom polystyrene tubes (BD, NY, USA). The cell pellet was incubated with 50 μl PBS with 2% FBS with FITC anti-mouse CD11c, PE anti-mouse/human CD11b, PE-Cy7 anti-mouse Ly6G, APC anti-mouse F4/80, APC-Cy7 anti-mouse I-A (all from BioLegend, CA, USA), PerCP Cy5.5 anti-mouse Ly6C, and Fixable Viability Dye eFluor® 450 (eBioscience, CA, USA) at 4° C. for 15 min. Cells were washed once with 2 ml PBS with 2% FBS and fixed with 200 μl 1.5% PFA in 4° C. till analysis.

E0771 cells [1] = test: Orthotopic E0771 mammary tumor growth; assay type: in vivo, mouse; conditions: orthotopic graft in syngeneic wildtype mice; STO-609 IP 3-times/week
Procedure: (§1) E0771, 4T1 and Met1 grafts: 200,000 of the indicated cells were grafted orthotopically into the mammary fat pad of mice. 4T1 and Met1 cells were grafted in 50% matrigel. Resulting tumors were assessed by direct caliper measurement. To get sizable tumors in Camkk2−/− mice for IHC and flow cytometry studies, a higher number of E0771 (4×10^5) where grafted. This information has been reported in the corresponding figures.
(§2) These drugs were administered intraperitoneally daily. […] GSK treatment was initiated at post-day 2.

E0771 cells [2] = test: E0771 tumor growth in CD8+ T-cell depleted Camkk2-/- mice; assay type: in vivo, mouse; conditions: anti-CD8 treated Camkk2-/- mice, STO-609 vs vehicle
Procedure: as §1, §2
To deplete CD8+ cells, mice were injected intra-peritoneally with anti-mouse CD8 monoclonal antibody or its IgG control isotype (BioXCell, NH, USA) each at 200 μl at the concentration of 1 mg/ml 4 days and 1 day before tumor inoculation, and every 3 days after tumor cell injection. The effect of CD8 depletion was monitored by flow cytometry using 50 μl peripheral blood staining with APC anti-mouse CD8, APC-Cy7 anti-mouse CD45.2 (BioLegend) at the same time.

E.G7 tumor = test: Flow cytometry of tumors and spleens of E.G7 tumor bearing mice; assay type: in vivo, mouse; conditions: vs DMSO
Procedure: The removed tumors were further minced with a surgical scalpel. The tissue were added to 5 ml HBSS w/Ca^2+ and Mg^2+ (ThermoFisher Scientific, MA, USA) supplied with collagenase 2 mg/ml and DNase 0.1 mg/ml (Roche, Basel, Switzerland) in gentleMACS C tubes and dissecting with gentleMACS dissociator (Miltenyi, Bergisch Gladbach, Germany). The samples were incubated in 37° C. for 15 min and passed through the 70 μm cell strainers (Coring, NY, USA). Cells were washed twice in PBS w/2% FBS before staining.
For myeloid cells staining, 5×10^6 cells were incubated with FITC anti-mouse CD11c, PE anti-mouse/human CD11b, PE-Cy7 anti-mouse Ly6G, APC anti-mouse F4/80 (all from BioLegend, CA, USA), PerCpCy5.5 anti-mouse Ly6C, Fixable Viability Dye eFluor® 450 (eBioscience, CA, USA) at 4° C. for 15 min in dark and washed with PBS w/2% FBS. The stained cells were analyzed using a BD FACSCanto flow cytometer (BD, NJ, USA). Data is analyzed using FlowJo (TreeStar, OR, USA).

E0771 tumors = test: Flow cytometry of tumor-associated myeloid and lymphoid cells in E0771 tumors; assay type: in vivo, mouse; conditions: STO-609 vs vehicle treated mice
Procedure: Tumors were removed from mice and minced with a surgical scalpel. Minced tissues were added to 5 ml HBSS containing Ca^2+ and Mg^2+ (ThermoFisher Scientific, MA, USA), and supplied with collagenase 2 mg/ml and DNase 0.1 mg/ml (Roche, Basel, Switzerland). Subsequently, they were transferred in gentleMACS C tubes, dissected with gentleMACS dissociator (Miltenyi, Bergisch Gladbach, Germany) and incubated for […] at 37° C. At the end of this incubation, tumors were dissected again with gentleMACS dissociator, and cell suspension passed through 70 μm-cell strainers (Coring, NY, USA), washed twice in PBS w/2% FBS and used for FACS analysis.
Staining of tumor-infiltrating E0771 tumors: 5×10^6 cells suspension from dissected tumors were surface stained with APC Cy7-CD3, PE-CD8, PE Cy7-CD4, APC PD-1 (all from BioLegend, CA, USA). Cells were incubated for 15 min at 4° C., washed with PBS-2% FCS. PerCP/Cy5.5 PD-1 antibody (BioLegend, CA, USA) was used for intracellular staining on fixed and permeabilized cells, according with manufacture's protocol (BioLegend). For myeloid cells staining, cells were incubated with PE anti-mouse/human CD11b, PE-Cy7 anti-mouse Ly6G, APC anti-mouse F4/80 (all from BioLegend), PerCpCy5.5 anti-mouse Ly6C, APC Cy7-I-A and Fixable Viability Dye eFluor 450 (eBioscience, CA, USA) at 4° C. for 15 min in dark. Subsequently, cells were washed with PBS w/2% FBS and analyzed by FACS. Bone marrow-derived macrophages (1×10^6) were stained with PE anti-mouse/human CD11b, APC anti-mouse F4/80 (BioLegend), APC Cy7-I-A and Fixable Viability Dye eFluor 450 (eBioscience). The stained cells were analyzed using a BD FACSCanto flow cytometer (BD, NJ, USA). Data is analyzed using FlowJo (TreeStar, OR, USA).

4T1 cells = test: Orthotopic 4T1 mammary tumor growth; assay type: in vivo, mouse; conditions: syngeneic wildtype mice; IP 3-times/week
Procedure: as §1
(§3) […] […] GSK treatment was initiated at post-day 2.

Met1 cells = test: Orthotopic Met1 mammary tumor growth; assay type: in vivo, mouse; conditions: syngeneic wildtype mice; IP 100 moles/Kg body weight 3-times/week
Procedure: as §1, §3

E.G7 cells = test: E.G7 lymphoma flank tumor growth under STO-609 treatment; assay type: in vivo, mouse; conditions: C57BL/6 mice, peritoneal injection every 2-3 days, vs DMSO; p<0.001
Procedure: Flank Tumor Model 1×10^5 E.G7 cells were suspended in 100 μl PBS and implanted subcutaneously to the right side flank of the mice. Tumors were monitored using bioluminescence imaging each week. Tumor sizes were measured with calibrator every 3-4 days and calculated as: Length×Width×Width/2. In some experiments 5×10^5 cells were used as indicated. Mice were sacrificed when tumor reached 2 cm^3. ELISpot Analysis
STO-609 was purchased from TORIS Bioscience (Bristol, UK). The C57BL/6 mice were purchased from the Jackson Laboratory (CA, USA). The mice were inoculated with 5×10^5 E.G7 cells to the right flank subcutaneously on day 0. On day 7, the tumor growth was measured using bioluminescent imaging. All the mice with visible tumor under luciferin detection were randomized into STO-609 treatment group or DMSO control group. […] The tumor size was monitored using a calibrator every 3-4 days. The experiment was terminated when the tumor reached 2 cm^3.

SMILES: OO [H2O2]
- M-MDSC number / accumulation (bone marrow derived MDSC): significantly decreased
- differentiation towards Ly6C-IA+CD11c+ dendritic cells (bone marrow derived MDSC): increased both the count and percentage

SMILES: CC1(C)CC(NC(=O)C[P+](c2ccccc2)(c2ccccc2)c2ccccc2)CC(C)(C)N1[O] [MitoTEMPO]
- M-MDSC number / accumulation (bone marrow derived MDSC): significantly induced M-MDSC accumulation
- differentiation towards Ly6C-IA+CD11c+ dendritic cells (bone marrow derived MDSC): decreased the differentiation

SMILES: CCCc1ccnc2[nH]cc(-c3ccc(C(=O)N[C@@H](CO)c4ccccc4)cc3)c12 [GSKi]
- E0771 mammary tumor growth (tumor volume) (E0771 cells [1]): inhibited

SMILES: O=C(O)c1ccc2c3c1cccc3c(=O)n1c3ccccc3nc21 [STO-609]
- E0771 tumor growth in CD8+ T-cell depleted CamKK2-/- mice (E0771 cells [2]): without effect
- percentage of CD3 in the tumors (E.G7 tumor; E.G7 tumors, p<0.05): significantly higher
- percentage of M-MDSC in the spleens (E.G7 tumor; Ly6C+ in CD11b+ population, p<0.001): much lower
- CD4+ T cells in E0771 tumors (E0771 tumors): promoting accumulation
- CD8+ T cells in E0771 tumors (E0771 tumors): promoting accumulation
- MHCII I-A high macrophages in E0771 tumors (E0771 tumors): promoting accumulation
- NK-T cells in E0771 tumors (E0771 tumors): promoting accumulation
- 4T1 mammary tumor growth (tumor volume) (4T1 cells): inhibited
- E0771 mammary tumor growth (tumor volume) (E0771 cells [1]): antitumor activity
- Met1 mammary tumor growth (tumor volume) (Met1 cells): inhibited
- lymphoma growth (E.G7 tumor size) (E.G7 cells): significantly suppressed

SMILES: COc1ccc(O)c(C(C)(C)C)c1 [BHA, Butylated hydroxyanisole]
- M-MDSC number / accumulation (bone marrow derived MDSC): same phenomenon was also observed
- differentiation towards Ly6C-IA+CD11c+ dendritic cells (bone marrow derived MDSC): same phenomenon was also observed
